Assay results published in US20140242093A1, “METHODS AND COMPOSITIONS FOR MODULATING THE INNATE IMMUNE RESPONSE AND/OR MYOGENESIS IN A MAMMALIAN SUBJECT” (FRED HUTCHINSON CANCER RESEARCH CENTER, priority 2011, published 2014).

Test system: human genome (hg18)
Assay: ChIP-Seq of DUX4 binding sites in transduced primary myoblasts
Settings: for max.cov (peak height): non-repeat binding site
Protocol: Non-redundant reads unambiguously mapped to the human genome were computationally extended to a total length of 200 nucleotides and “peaks” were defined as regions where the number of reads was higher than a statistical threshold compared to the background, as described below. Reads mapping to the X and Y chromosomes were excluded from the analysis.
ChIP was performed and ChIP DNA samples were prepared as previously described in Cao et al., Dev. Cell 18:662-674 (2010), hereby incorporated herein by reference. […] Anti-DUX4 N-terminus polyclonal antibodies FH106 and FH107 were combined to immunoprecipitate DUX4-s. The samples were sequenced with Illumina Genome Analyzer II.
Sequences were extracted by Illumina package GApipeline and reads were aligned using BWA to the human genome (hg18). The inventors only kept one of the duplicated sequences to minimize the artifacts of PCR amplification. Each read was extended in the sequencing orientation to a total of 200 bases to infer the coverage at each genomic position. Peak calling was performed by a house developed R package “peakSig” (pending submission to Bioconductor), which model background reads by a negative binomial distribution. The negative binomial distribution can be viewed as a continuous mixture of Poisson distribution where the mixing distribution of the Poisson rate is modeled as a Gamma prior. This prior distribution is used to capture the variation of background reads density across the genome. Model parameters were estimated by fitting the truncated distribution on the number of bases with low coverage (one to three), to avoid the problem of inferring effective genome size excluding the non-mappable regions, and to eliminate contamination of any foreground signals in the high coverage regions. The inventors also fit a GC dependent mixture model so that the significance of the peaks is determined not only by peak height, but also by the GC content of the neighboring genomic regions.
Discriminative motif discovery was carried out as described in Palii et al. (2011), in which motifs were identified that distinguish a positive and a negative sequence dataset, which in this study, the positive sequences correspond to Dux4 binding sites and negative sequences correspond to the randomly sampled flanking regions of Dux4 binding sites. To generate more accurate presentation of the Dux4 binding sites from the consensus pattern returned by this analysis, the inventors tried to learn a positional weight matrix (PWM) model, using the matches of the consensus pattern as the seed to initialize the iterative expectation-maximization (EM) refinement process similar to MEME. If appropriate, the motifs are extended iteratively as long as there is sequence preference in the flanking region, and refined in the same EM process.
The inventors associated a peak to its closest TSS within the region flanked by CTCF binding sites, which were identified in a ChIP-seq experiment on human CD4+ T cells (GEO accession number GSE12889/GSM325895).

## DUX4-fl: full-length DUX4 protein (SEQ ID NO:110), expressed from lentiviral or pCS2 vectors or in vitro translated
  enrichment of binding in the MaLR family of retrotransposons: ~10 fold
  share of sequences under the peaks with a second larger (LTR) motif: Approximately 30%
P-value threshold 10^−10, background peaks subtracted
  number of ChIP-Seq peaks: 62,028 peaks
P-value threshold 10^−15, background peaks subtracted
  number of ChIP-Seq peaks: 39,737 peaks
De novo motif analysis
  share of peaks with motif TAAYBBAATCA near the center: greater than 90%
AVPI1, chr10, dist2tss 126
  max.cov (peak height): 56
BZW2, chr7, dist2tss 1939
  max.cov (peak height): 63
BZW2, chr7, dist2tss 1955
  max.cov (peak height): 86
C1orf63, chr1, dist2tss −1326
  max.cov (peak height): 132
C6orf191, chr6, dist2tss 61
  max.cov (peak height): 250
C14orf102, chr14, dist2tss −558
  max.cov (peak height): 159
C14orf138, chr14, dist2tss 326
  max.cov (peak height): 53
C14orf138, chr14, dist2tss −4696
  max.cov (peak height): 50
C21orf91, chr21, dist2tss −803
  max.cov (peak height): 274
CBARA1, chr10, dist2tss 2340
  max.cov (peak height): 70
CBARA1, chr10, dist2tss 4786
  max.cov (peak height): 250
CCNA1, chr13, dist2tss 1874
  max.cov (peak height): 58
CCNA1, chr13, dist2tss −2425
  max.cov (peak height): 56
CCNJ, chr10, dist2tss −637
  max.cov (peak height): 265
CLDN14, chr21, dist2tss −2523
  max.cov (peak height): 96
CLK1, chr2, dist2tss 4634
  max.cov (peak height): 163
CSE1L, chr20, dist2tss −1935
  max.cov (peak height): 57
CSE1L, chr20, dist2tss −5914
  max.cov (peak height): 53
CTNNAL1, chr9, dist2tss 641
  max.cov (peak height): 198
CTR9, chr11, dist2tss 1913
  max.cov (peak height): 46
DBR1, chr3, dist2tss 3981
  max.cov (peak height): 117
DDX47, chr12, dist2tss −4416
  max.cov (peak height): 55
DEFB103A, chr8, dist2tss −2289
  max.cov (peak height): 55
DENND2C, chr1, dist2tss −3169
  max.cov (peak height): 116
EGLN1, chr1, dist2tss −1
  max.cov (peak height): 205
EXOSC10, chr1, dist2tss 150
  max.cov (peak height): 139
FAM90A1, chr12, dist2tss −1597
  max.cov (peak height): 129
FBXO33, chr14, dist2tss −2226
  max.cov (peak height): 117
FRG2B, chr10, dist2tss 598
  max.cov (peak height): 200
GPBAR1, chr2, dist2tss −224
  max.cov (peak height): 150
GTF2F1, chr19, dist2tss 134
  max.cov (peak height): 83
HOXB2, chr17, dist2tss −2471
  max.cov (peak height): 283
JUP, chr17, dist2tss −701
  max.cov (peak height): 177
KDM5B, chr1, dist2tss 301
  max.cov (peak height): 93
KIF21A, chr12, dist2tss −1030
  max.cov (peak height): 37
KIF21A, chr12, dist2tss −4249
  max.cov (peak height): 73
MAPKAP1, chr9, dist2tss 3619
  max.cov (peak height): 153
MAPKAP1, chr9, dist2tss −4397
  max.cov (peak height): 69
MAST4, chr5, dist2tss −1253
  max.cov (peak height): 269
MED13, chr17, dist2tss −2755
  max.cov (peak height): 43
NANS, chr9, dist2tss 1843
  max.cov (peak height): 85
NFYA, chr6, dist2tss 49
  max.cov (peak height): 159
PABPN1, chr14, dist2tss −529
  max.cov (peak height): 257
PANX2, chr22, dist2tss −2040
  max.cov (peak height): 118
PELI1, chr2, dist2tss 4936
  max.cov (peak height): 85
PNP, chr14, dist2tss −104
  max.cov (peak height): 344
PPP2R2B, chr5, dist2tss 2498
  max.cov (peak height): 91
PRAMEF12, chr1, dist2tss −1230
  max.cov (peak height): 99
PRPF18, chr10, dist2tss 3230
  max.cov (peak height): 57
PRR4, chr12, dist2tss 83
  max.cov (peak height): 54
PTP4A1, chr6, dist2tss −2227
  max.cov (peak height): 105
PVRL3, chr3, dist2tss 2678
  max.cov (peak height): 51
RBBP6, chr16, dist2tss −1619
  max.cov (peak height): 76
RBBP6, chr16, dist2tss −1922
  max.cov (peak height): 323
RBBP6, chr16, dist2tss −4040
  max.cov (peak height): 46
RFPL1, chr22, dist2tss −3042
  max.cov (peak height): 124
RFPL2, chr22, dist2tss 3057
  max.cov (peak height): 129
RFPL2, chr22, dist2tss −2853
  max.cov (peak height): 118
RFPL4B, chr6, dist2tss −321
  max.cov (peak height): 232
RTN4, chr2, dist2tss 1853
  max.cov (peak height): 115
RTN4, chr2, dist2tss −2562
  max.cov (peak height): 52
SAMD8, chr10, dist2tss 3338
  max.cov (peak height): 43
SEC61A2, chr10, dist2tss −1861
  max.cov (peak height): 172
SFRS2B, chr11, dist2tss 42
  max.cov (peak height): 373
SH3GL2, chr9, dist2tss −4600
  max.cov (peak height): 88
SIAH1, chr16, dist2tss −2337
  max.cov (peak height): 118
